According to ChEMBL document CHEMBL3351341, “Discovery of a potent and selective EGFR inhibitor (AZD9291) of both sensitizing and T790M resistance mutations that spares the wild type form of the receptor” (J Med Chem, 2014):
≈ marks a conversion by molar mass, not a printed value.

Experiments:
[1] = Lipophilicity, log D of the compound at pH 7.4; format: physicochemical; settings: buffer
[2] = target: T1, Insulin-like growth factor 1 receptor (Homo sapiens, UniProt P08069); assay: Inhibition of IGF1R (unknown origin)
[3] = target: T1, Insulin-like growth factor 1 receptor; assay: Inhibition of IGF1R (unknown origin) at 1 uM relative to control
Insulin receptor [4] = target: T2, Insulin receptor (Homo sapiens, UniProt P06213); assay: Inhibition of INSR (unknown origin) at 1 uM relative to control
Mus musculus [5] = assay: Inhibition of EGFR exon 19 deletion activating mutant phosphorylation in human PC9 cells xenografted in SCID mouse at 10 mg/kg, po measured 1 hr post dose; format: functional; settings: PC-9, 1 h
Mus musculus [6] = assay: Inhibition of EGFR exon 19 deletion activating mutant phosphorylation in human PC9 cells xenografted in SCID mouse at 10 mg/kg, po measured 6 hrs post dose; format: functional; settings: PC-9, 6 h
Mus musculus [7] = assay: Inhibition of EGFR exon 19 deletion activating mutant phosphorylation in human PC9 cells xenografted in SCID mouse at 10 mg/kg, po measured 16 hrs post dose; format: functional; settings: PC-9, 16 h
Mus musculus [8] = assay: Inhibition of EGFR exon 19 deletion activating mutant phosphorylation in human PC9 cells xenografted in SCID mouse at 10 mg/kg, po measured 24 hrs post dose; format: functional; settings: PC-9, 24 h
Mus musculus [9] = assay: Inhibition of EGFR L858R/[…] double mutant phosphorylation in human NCI-H1975 cells xenografted in SCID mouse at 10 mg/kg, po measured 1 hr post dose; format: functional; settings: NCI-H1975, 1 h
Mus musculus [10] = assay: Inhibition of EGFR L858R/[…] double mutant phosphorylation in human NCI-H1975 cells xenografted in SCID mouse at 10 mg/kg, po measured 6 hrs post dose; format: functional; settings: NCI-H1975, 6 h
Mus musculus [11] = assay: Inhibition of EGFR L858R/[…] double mutant phosphorylation in human NCI-H1975 cells xenografted in SCID mouse at 10 mg/kg, po measured 16 hrs post dose; format: functional; settings: NCI-H1975, 16 h
Mus musculus [12] = assay: Inhibition of EGFR L858R/[…] double mutant phosphorylation in human NCI-H1975 cells xenografted in SCID mouse at 10 mg/kg, po measured 24 hrs post dose; format: functional; settings: NCI-H1975, 24 h
Mus musculus [13] = assay: Inhibition of EGFR L858R/[…] double mutant phosphorylation in human NCI-H1975 cells xenografted in SCID mouse at 10 mg/kg, po measured 30 hrs post dose; format: functional; settings: NCI-H1975, 30 h
NCI-H1975 [14] = assay: Antitumor activity against human NCI-H1975 cells harboring EGFR L858R/[…] double mutant xenografted in SCID mouse assessed as tumor growth inhibition at 10 mg/kg/day, po qd for 7 days relative to control; format: functional; settings: Mus musculus, NCI-H1975, 168 h, read-out: TGI
[15] = Antitumor activity against human PC9 cells harboring EGFR exon 19 deletion activating mutant xenografted in SCID mouse assessed as tumor growth inhibition at 10 mg/kg/day, po qd for 7 days relative to control; format: functional, PC-9; settings: Homo sapiens, PC-9, 168 h, read-out: TGI
A-431 [16] = assay: Antitumor activity against human A431 cells xenografted in SCID mouse assessed as tumor growth inhibition at 10 mg/kg/day, po qd for 7 days relative to control; format: functional; settings: Mus musculus, A-431, 168 h, read-out: TGI
Insulin receptor [17] = target: T2, Insulin receptor; assay: Inhibition of INSR (unknown origin)
[18] = target: Epidermal growth factor receptor (Homo sapiens, UniProt P00533, L858R/T790M); assay: Inhibition of EGFR L858R/T790M double mutant phosphorylation in human NCI-H1975 cells after 2 hrs by fluorescence assay; format: cell-based
[19] = target: Epidermal growth factor receptor (Homo sapiens, UniProt P00533, EX19DEL); assay: Inhibition of EGFR exon 19 deletion activating mutant phosphorylation in human PC9 cells after 2 hrs by fluorescence assay; format: cell-based, PC-9
[20] = target: Epidermal growth factor receptor (Homo sapiens, UniProt P00533); assay: Inhibition of wild type EGFR phosphorylation in human LoVo cells after 2 hrs by fluorescence assay; format: cell-based
[21] = Intrinsic clearance in mouse hepatocytes measured per 10^6 cells; format: ADME, cell-based, Hepatocyte; settings: read-out: CLH
[22] = Thermodynamic solubility of the compound at pH 7.4; format: physicochemical; settings: buffer, read-out: Therm_solubility
NCI-H1975 [23] = assay: Cytotoxicity against human NCI-H1975 cells harboring EGFR L858R/[…] double mutant assessed as growth inhibition after 72 hrs by SYTOX green nucleic acid staining-based fluorescence assay; format: functional; settings: Homo sapiens, NCI-H1975, 72 h
[24] = Cytotoxicity against human PC9 cells harboring EGFR exon 19 deletion activating mutant assessed as growth inhibition after 72 hrs by SYTOX green nucleic acid staining-based fluorescence assay; format: functional, PC-9; settings: Homo sapiens, PC-9, 72 h
[25] = Cytotoxicity against human Calu3 cells assessed as growth inhibition after 72 hrs by SYTOX green nucleic acid staining-based fluorescence assay; format: functional, Calu-3; settings: Homo sapiens, Calu-3, 72 h
[26] = Unbound fraction in human plasma; format: ADME, cell-free
[27] = Fraction unbound in Han Wistar rat plasma; format: ADME, cell-free
NCI-H1975 [28] = assay: Antitumor activity against human NCI-H1975 cells harboring EGFR L858R/[…] double mutant xenografted in SCID mouse assessed as tumor growth inhibition at […], po qd for 7 days relative to control; format: functional; settings: Mus musculus, NCI-H1975, 168 h, read-out: TGI
A-431 [29] = assay: Antitumor activity against human A431 cells xenografted in SCID mouse assessed as tumor growth inhibition at […], po qd for 7 days relative to control; format: functional; settings: Mus musculus, A-431, 168 h, read-out: TGI
[30] = Unbound fraction in nude mouse plasma; format: ADME, cell-free
NCI-H1975 [31] = assay: Antitumor activity against human NCI-H1975 cells harboring EGFR L858R/[…] double mutant xenografted in SCID mouse assessed as tumor growth inhibition at 5 mg/kg/day, po qd for 7 days relative to control; format: functional; settings: Mus musculus, NCI-H1975, 168 h, read-out: TGI
A-431 [32] = assay: Antitumor activity against human A431 cells xenografted in SCID mouse assessed as tumor growth inhibition at 5 mg/kg/day, po qd for 7 days relative to control; format: functional; settings: Mus musculus, A-431, 168 h, read-out: TGI
[33] = target: Voltage-gated inwardly rectifying potassium channel KCNH2 (Homo sapiens, UniProt Q12809); assay: Inhibition of human ERG
[34] = Intrinsic clearance in human hepatocytes measured per 10^6 cells; format: ADME, cell-based, Hepatocyte; settings: read-out: CLH
[35] = Cmax in mouse at 10 mg/kg, po; format: ADME, organism-based; set-up: dose 10 mg/kg, route oral; settings: in vivo
Rattus norvegicus = assay: Clearance in iv dosed Han Wistar rat; format: ADME, organism-based; settings: in vivo
[36] = Oral bioavailability in Han Wistar rat at 5 mg/kg; format: ADME, organism-based; settings: in vivo
[37] = target: Calcium/calmodulin-dependent protein kinase kinase 2 (Homo sapiens) (UniProt Q96RR4); assay: Inhibition of CAMKKbeta (unknown origin) at 1 uM relative to control
[38] = target: Serine/threonine-protein kinase Chk2 (Homo sapiens) (UniProt O96017); assay: Inhibition of CHK2 (unknown origin) at 1 uM relative to control
Serine/threonine-protein kinase Chk2 (Homo sapiens), sequence (O96017 whole entry): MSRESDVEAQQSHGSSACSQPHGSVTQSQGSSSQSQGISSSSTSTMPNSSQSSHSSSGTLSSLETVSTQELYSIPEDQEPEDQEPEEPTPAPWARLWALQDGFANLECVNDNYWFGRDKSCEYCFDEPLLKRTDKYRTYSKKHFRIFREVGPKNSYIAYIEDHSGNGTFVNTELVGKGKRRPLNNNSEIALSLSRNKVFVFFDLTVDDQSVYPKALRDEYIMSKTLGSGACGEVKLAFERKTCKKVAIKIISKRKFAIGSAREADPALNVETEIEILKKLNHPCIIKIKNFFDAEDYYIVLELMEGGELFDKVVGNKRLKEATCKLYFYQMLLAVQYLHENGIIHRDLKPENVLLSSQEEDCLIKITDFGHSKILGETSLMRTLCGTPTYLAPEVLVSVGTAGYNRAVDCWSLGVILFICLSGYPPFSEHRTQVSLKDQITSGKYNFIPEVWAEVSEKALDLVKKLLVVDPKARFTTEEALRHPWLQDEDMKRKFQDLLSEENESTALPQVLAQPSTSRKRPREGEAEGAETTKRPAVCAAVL

T2 sequence (P06213 28-758 limits assumed): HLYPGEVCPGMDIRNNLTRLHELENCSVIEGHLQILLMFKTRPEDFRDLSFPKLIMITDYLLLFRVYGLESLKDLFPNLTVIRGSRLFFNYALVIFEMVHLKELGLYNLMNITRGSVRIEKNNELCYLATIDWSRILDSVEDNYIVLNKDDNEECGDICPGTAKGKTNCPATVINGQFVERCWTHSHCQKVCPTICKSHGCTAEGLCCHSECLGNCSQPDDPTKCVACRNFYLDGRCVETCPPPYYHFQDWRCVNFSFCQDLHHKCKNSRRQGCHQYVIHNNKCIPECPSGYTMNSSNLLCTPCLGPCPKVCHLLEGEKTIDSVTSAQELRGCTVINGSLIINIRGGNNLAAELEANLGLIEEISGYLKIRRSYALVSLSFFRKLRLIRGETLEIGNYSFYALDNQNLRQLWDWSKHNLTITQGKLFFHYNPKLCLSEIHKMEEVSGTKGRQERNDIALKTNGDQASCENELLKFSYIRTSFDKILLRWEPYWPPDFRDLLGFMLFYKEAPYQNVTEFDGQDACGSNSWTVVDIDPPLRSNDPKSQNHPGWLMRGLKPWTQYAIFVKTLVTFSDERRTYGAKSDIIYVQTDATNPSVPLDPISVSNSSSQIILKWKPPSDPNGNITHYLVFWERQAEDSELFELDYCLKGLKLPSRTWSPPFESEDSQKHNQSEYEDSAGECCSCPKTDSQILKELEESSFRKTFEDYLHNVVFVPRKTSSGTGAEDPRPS
T2 sequence (P06213 763-1382 limits assumed): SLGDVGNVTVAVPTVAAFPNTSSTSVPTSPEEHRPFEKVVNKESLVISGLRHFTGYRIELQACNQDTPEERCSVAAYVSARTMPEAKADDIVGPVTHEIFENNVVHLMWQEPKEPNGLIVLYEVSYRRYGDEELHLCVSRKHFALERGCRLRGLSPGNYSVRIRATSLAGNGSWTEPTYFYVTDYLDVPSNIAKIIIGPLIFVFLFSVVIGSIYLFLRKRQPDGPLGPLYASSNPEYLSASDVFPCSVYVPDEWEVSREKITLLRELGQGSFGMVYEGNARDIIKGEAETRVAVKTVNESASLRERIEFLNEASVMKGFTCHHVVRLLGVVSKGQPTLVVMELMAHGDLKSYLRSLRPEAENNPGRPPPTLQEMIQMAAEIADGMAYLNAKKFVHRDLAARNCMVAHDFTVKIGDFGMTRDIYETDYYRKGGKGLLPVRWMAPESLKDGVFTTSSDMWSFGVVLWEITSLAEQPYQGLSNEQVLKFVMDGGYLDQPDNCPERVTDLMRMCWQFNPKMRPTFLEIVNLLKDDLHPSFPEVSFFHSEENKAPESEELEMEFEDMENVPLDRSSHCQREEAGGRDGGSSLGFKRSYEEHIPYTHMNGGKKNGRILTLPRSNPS
T1 sequence (P08069 31-736 limits assumed): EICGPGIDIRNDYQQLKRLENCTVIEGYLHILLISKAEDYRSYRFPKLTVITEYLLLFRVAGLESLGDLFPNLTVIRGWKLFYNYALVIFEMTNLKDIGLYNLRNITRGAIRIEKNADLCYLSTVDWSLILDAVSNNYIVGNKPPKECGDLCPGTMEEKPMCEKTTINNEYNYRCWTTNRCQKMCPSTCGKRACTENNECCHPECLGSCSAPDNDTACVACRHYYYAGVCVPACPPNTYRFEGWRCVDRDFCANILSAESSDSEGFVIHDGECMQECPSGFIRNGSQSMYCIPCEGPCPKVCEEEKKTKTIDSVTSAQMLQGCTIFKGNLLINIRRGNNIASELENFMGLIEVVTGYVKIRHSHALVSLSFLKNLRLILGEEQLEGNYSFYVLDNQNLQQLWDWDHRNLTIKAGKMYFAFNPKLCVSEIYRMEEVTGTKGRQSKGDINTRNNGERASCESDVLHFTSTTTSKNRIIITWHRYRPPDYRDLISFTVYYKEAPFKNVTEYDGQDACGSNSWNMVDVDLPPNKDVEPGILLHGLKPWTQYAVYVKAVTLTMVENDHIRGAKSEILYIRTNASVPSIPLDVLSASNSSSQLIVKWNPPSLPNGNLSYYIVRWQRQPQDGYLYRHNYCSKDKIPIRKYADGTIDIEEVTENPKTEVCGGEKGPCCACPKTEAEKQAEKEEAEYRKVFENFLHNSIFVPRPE
T1 sequence (P08069 741-1367 limits assumed): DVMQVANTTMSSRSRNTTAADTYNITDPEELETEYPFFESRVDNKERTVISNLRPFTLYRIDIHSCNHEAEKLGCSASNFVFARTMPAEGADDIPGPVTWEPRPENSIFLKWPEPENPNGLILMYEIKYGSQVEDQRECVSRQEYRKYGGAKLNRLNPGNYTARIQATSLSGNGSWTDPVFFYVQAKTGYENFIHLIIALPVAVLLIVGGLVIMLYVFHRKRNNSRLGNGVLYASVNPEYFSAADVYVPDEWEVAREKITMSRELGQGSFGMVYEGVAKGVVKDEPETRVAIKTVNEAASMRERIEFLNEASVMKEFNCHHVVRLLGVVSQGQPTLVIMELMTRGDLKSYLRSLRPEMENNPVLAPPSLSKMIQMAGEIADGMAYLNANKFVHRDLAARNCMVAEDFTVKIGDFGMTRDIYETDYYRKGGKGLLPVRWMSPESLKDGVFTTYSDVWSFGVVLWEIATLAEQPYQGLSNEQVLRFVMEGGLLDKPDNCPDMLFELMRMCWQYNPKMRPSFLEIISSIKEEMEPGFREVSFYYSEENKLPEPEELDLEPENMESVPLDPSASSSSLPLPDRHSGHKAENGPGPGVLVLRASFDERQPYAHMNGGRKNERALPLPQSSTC
Voltage-gated inwardly rectifying potassium channel KCNH2, sequence (Q12809 whole entry): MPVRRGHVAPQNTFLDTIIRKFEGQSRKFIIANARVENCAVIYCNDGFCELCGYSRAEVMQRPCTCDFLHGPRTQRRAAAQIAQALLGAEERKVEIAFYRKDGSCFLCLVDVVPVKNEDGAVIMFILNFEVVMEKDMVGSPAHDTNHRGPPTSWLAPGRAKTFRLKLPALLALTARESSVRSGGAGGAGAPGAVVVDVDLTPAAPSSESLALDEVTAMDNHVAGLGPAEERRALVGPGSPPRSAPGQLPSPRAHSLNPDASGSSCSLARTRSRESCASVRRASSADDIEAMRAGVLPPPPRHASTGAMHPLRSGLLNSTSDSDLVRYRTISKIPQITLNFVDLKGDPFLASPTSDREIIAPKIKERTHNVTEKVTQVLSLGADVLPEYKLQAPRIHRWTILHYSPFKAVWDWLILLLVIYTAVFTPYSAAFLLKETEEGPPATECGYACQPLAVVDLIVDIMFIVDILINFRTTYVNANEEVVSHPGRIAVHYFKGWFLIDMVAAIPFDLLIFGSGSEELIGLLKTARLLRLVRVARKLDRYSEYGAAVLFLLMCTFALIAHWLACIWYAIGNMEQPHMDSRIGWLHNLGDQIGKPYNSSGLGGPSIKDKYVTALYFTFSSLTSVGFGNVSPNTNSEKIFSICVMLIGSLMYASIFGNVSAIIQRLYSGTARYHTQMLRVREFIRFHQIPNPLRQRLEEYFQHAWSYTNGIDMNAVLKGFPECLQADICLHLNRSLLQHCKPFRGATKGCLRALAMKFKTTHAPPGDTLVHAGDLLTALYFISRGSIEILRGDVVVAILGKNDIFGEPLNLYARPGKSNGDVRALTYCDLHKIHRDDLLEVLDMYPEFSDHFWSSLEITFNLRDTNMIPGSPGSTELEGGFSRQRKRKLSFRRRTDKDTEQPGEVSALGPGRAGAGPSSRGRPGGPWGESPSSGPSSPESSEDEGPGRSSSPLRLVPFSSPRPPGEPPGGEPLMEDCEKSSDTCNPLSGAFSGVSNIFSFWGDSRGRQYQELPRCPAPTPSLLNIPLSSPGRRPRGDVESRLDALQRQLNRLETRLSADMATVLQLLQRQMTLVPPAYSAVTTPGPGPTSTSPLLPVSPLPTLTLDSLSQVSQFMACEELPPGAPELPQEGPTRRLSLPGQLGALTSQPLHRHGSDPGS
Calcium/calmodulin-dependent protein kinase kinase 2 (Homo sapiens), sequence (Q96RR4 2-588 limits assumed): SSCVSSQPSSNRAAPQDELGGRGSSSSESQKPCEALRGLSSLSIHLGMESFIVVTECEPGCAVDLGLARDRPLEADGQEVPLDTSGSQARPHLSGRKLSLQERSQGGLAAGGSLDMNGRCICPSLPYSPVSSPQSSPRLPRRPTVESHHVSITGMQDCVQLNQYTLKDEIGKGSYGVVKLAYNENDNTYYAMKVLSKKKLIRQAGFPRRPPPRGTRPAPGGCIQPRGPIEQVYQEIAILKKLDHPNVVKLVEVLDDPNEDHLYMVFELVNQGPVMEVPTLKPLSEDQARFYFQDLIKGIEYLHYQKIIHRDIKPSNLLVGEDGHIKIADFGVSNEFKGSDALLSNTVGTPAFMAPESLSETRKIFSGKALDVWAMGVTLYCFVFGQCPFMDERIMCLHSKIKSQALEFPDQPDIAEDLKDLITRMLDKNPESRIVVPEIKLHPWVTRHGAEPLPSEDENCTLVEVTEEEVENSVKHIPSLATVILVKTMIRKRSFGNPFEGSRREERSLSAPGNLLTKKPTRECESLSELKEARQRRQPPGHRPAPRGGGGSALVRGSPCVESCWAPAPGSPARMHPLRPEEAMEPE

C=CC(=O)Nc1cc(Nc2ncc(Cl)c(-c3cnn4ccccc34)n2)c(OC)cc1N1CCN(C(=O)[C@H]2CCCCN2)CC1
logD [1]: 2.2

C=CC(=O)Nc1cc(Nc2ncc(Cl)c(-c3cnn4ccccc34)n2)c(OC)cc1N1CCN(C(=O)CNC)CC1
logD [1]: 1.8

C=CC(=O)Nc1cc(Nc2ncc(Cl)c(-c3cnn4ccccc34)n2)c(OC)cc1N1CC(N(C)C)C1
IC50 [2]: 26 nM | inhibition [3]: 97% | inhibition (Insulin receptor [4]): 98% | inhibition in vivo at 10 mg/kg (Mus musculus [5]): 57% | inhibition in vivo at 10 mg/kg (Mus musculus [6]): 85% | inhibition in vivo at 10 mg/kg (Mus musculus [7]): 52% | inhibition in vivo at 10 mg/kg (Mus musculus [8]): 19% | inhibition in vivo at 10 mg/kg (Mus musculus [9]): 37% | inhibition in vivo at 10 mg/kg (Mus musculus [10]): 99% | inhibition in vivo at 10 mg/kg (Mus musculus [11]): 82% | inhibition in vivo at 10 mg/kg (Mus musculus [12]): 79% | inhibition in vivo at 10 mg/kg (Mus musculus [13]): 50% | inhibition in vivo at 10 mg/kg/day (NCI-H1975 [14]): 113% | inhibition in vivo at 10 mg/kg/day [15]: 169% | inhibition in vivo at 10 mg/kg/day (A-431 [16]): 16% | IC50 (Insulin receptor [17]): 35 nM

C=CC(=O)Nc1cc(Nc2ncc(C)c(-c3cn(C)c4ccccc34)n2)c(OC)cc1N(C)CCN(C)C
IC50 [2]: 196 nM

C=CC(=O)Nc1cc(Nc2nccc(-c3c[nH]c4ccccc34)n2)c(OC)cc1N1CCN(C)CC1
IC50 [18]: 63 nM | IC50 [19]: 15 nM | IC50 [20]: 1200 nM | hepatocyte CLint [21]: 53 µL/min/1e6 cells | solubility thermodynamic [22]: 828 µM (≈ 400 µg/mL) | IC50 [2]: 813 nM

C=CC(=O)Nc1cc(Nc2ncc(Cl)c(-c3c[nH]c4ccccc34)n2)c(OC)cc1N(C)CCN(C)C
logD [1]: 3.3 | solubility thermodynamic [22]: 75 µM (≈ 39 µg/mL) | IC50 [2]: 7 nM | GI50 (NCI-H1975 [23]): 2 nM | GI50 [24]: 2 nM | GI50 [25]: 144 nM | fraction unbound [26]: 0.036 | fraction unbound [27]: 0.075

C=CC(=O)Nc1cc(Nc2nccc(-c3c[nH]c4ccccc34)n2)c(OC)cc1N(C)CCN(C)C
inhibition in vivo at […] (NCI-H1975 [28]): 78% | inhibition in vivo at […] (A-431 [29]): 83% | logD [1]: 2.9 | solubility thermodynamic [22]: 79 µM (≈ 38.4 µg/mL) | IC50 [2]: 263 nM | GI50 (NCI-H1975 [23]): 16 nM | GI50 [24]: 21 nM | GI50 [25]: 58 nM | fraction unbound [26]: 0.075 | fraction unbound [30]: 0.134 | inhibition in vivo at 10 mg/kg/day (NCI-H1975 [14]): 123% | inhibition in vivo at 10 mg/kg/day (A-431 [16]): 133% | fraction unbound [27]: 0.16 | inhibition in vivo at 5 mg/kg/day (NCI-H1975 [31]): 125% | inhibition in vivo at 5 mg/kg/day (A-431 [32]): 85%

C=CC(=O)Nc1cc(Nc2ncc(Cl)c(-c3cnn4ccccc34)n2)c(OC)cc1N1CCN(C(=O)CN(C)C)CC1
logD [1]: 2.6

C=CC(=O)Nc1cc(Nc2ncc(Cl)c(-c3cn(C)c4ccccc34)n2)c(OC)cc1N(C)CCN(C)C
logD [1]: 3.3 | solubility thermodynamic [22]: 759 µM (≈ 405 µg/mL) | IC50 [33]: 7.4 µM | IC50 [2]: 40 nM | GI50 (NCI-H1975 [23]): 4 nM | GI50 [24]: 3 nM | GI50 [25]: 192 nM | fraction unbound [26]: 0.023 | hepatocyte CLint [34]: 10 µL/min/1e6 cells | Cmax [35]: 310 nM | clearance (Rattus norvegicus): 27 mL/min/kg | bioavailability [36]: 7%

C=CC(=O)Nc1cc(Nc2ncc(Cl)c(-c3cnn4ccccc34)n2)c(OC)cc1N1CCN(C(=O)[C@@H](C)N)CC1
logD [1]: 2.1

C=CC(=O)Nc1cc(Nc2ncc(Cl)c(-c3cnn4ccccc34)n2)c(OC)cc1N1CCN(C(=O)N2CCNCC2)CC1
logD [1]: 2

C=CC(=O)Nc1cc(Nc2ncc(Cl)c(-c3cnn4ccccc34)n2)c(OC)cc1N1CCN(C(=O)[C@@H]2CCCCN2)CC1
logD [1]: 2.2

C=CC(=O)Nc1cc(Nc2ncc(C#N)c(-c3cn(C)c4ccccc34)n2)c(OC)cc1N(C)CCN(C)C
logD [1]: 2.7 | solubility thermodynamic [22]: 57 µM (≈ 29.9 µg/mL) | IC50 [33]: 4.3 µM | IC50 [2]: 38 nM | GI50 (NCI-H1975 [23]): 2 nM | GI50 [24]: 0.8 nM | GI50 [25]: 101 nM | fraction unbound [26]: 0.089 | hepatocyte CLint [34]: 10 µL/min/1e6 cells | Cmax [35]: 110 nM | clearance (Rattus norvegicus): 62 mL/min/kg | bioavailability [36]: 6% | fraction unbound [27]: 0.11

C=CC(=O)Nc1cc(Nc2ncc(Cl)c(-c3cnn4ccccc34)n2)c(OC)cc1N1CCN(C)CC1
IC50 [2]: 2 nM | inhibition [37]: 92% | inhibition [3]: 97%

C=CC(=O)Nc1cc(Nc2ncc(Cl)c(-c3cnn4ccccc34)n2)c(OC)cc1N1CC[C@@H](N(C)C)C1
IC50 [2]: 7 nM | inhibition [3]: 98% | inhibition (Insulin receptor [4]): 98% | inhibition in vivo at 10 mg/kg (Mus musculus [6]): 76% | inhibition in vivo at 10 mg/kg (Mus musculus [8]): 68% | inhibition in vivo at 10 mg/kg (Mus musculus [10]): 94% | inhibition in vivo at 10 mg/kg (Mus musculus [12]): 88% | inhibition in vivo at 10 mg/kg/day [15]: 227% | inhibition in vivo at 10 mg/kg/day (A-431 [16]): 27% | IC50 (Insulin receptor [17]): 21 nM

COc1ccc(NC(=O)/C=C/CN(C)C)cc1Nc1ncc(Cl)c(-c2cnn3ccccc23)n1
IC50 [2]: 4 nM | inhibition [38]: 90% | inhibition [37]: 94% | inhibition [3]: 98% | inhibition (Insulin receptor [4]): 97%
